Data published in ChEMBL document CHEMBL2074150, “Nucleotide binding and nucleotide hydrolysis properties of the ABC transporter MRP6 (ABCC6)” (Biochemistry, 2002).

Columns and labels:
Assay type in all cases: functional, cell membranes, Membrane
Details in all cases: komagataella pastoris
[1] = molecular target: T1, ATP-binding cassette sub-family C member 6 (Rattus norvegicus, UniProt O88269); experiment: TP_TRANSPORTER: inhibition of photolabeling by IAARh123 (IAARh123: 1 uM, VBL: 1000 uM) in membranes from Mrp6-expressing P. pastoris
T1 sequence (O88269 whole entry): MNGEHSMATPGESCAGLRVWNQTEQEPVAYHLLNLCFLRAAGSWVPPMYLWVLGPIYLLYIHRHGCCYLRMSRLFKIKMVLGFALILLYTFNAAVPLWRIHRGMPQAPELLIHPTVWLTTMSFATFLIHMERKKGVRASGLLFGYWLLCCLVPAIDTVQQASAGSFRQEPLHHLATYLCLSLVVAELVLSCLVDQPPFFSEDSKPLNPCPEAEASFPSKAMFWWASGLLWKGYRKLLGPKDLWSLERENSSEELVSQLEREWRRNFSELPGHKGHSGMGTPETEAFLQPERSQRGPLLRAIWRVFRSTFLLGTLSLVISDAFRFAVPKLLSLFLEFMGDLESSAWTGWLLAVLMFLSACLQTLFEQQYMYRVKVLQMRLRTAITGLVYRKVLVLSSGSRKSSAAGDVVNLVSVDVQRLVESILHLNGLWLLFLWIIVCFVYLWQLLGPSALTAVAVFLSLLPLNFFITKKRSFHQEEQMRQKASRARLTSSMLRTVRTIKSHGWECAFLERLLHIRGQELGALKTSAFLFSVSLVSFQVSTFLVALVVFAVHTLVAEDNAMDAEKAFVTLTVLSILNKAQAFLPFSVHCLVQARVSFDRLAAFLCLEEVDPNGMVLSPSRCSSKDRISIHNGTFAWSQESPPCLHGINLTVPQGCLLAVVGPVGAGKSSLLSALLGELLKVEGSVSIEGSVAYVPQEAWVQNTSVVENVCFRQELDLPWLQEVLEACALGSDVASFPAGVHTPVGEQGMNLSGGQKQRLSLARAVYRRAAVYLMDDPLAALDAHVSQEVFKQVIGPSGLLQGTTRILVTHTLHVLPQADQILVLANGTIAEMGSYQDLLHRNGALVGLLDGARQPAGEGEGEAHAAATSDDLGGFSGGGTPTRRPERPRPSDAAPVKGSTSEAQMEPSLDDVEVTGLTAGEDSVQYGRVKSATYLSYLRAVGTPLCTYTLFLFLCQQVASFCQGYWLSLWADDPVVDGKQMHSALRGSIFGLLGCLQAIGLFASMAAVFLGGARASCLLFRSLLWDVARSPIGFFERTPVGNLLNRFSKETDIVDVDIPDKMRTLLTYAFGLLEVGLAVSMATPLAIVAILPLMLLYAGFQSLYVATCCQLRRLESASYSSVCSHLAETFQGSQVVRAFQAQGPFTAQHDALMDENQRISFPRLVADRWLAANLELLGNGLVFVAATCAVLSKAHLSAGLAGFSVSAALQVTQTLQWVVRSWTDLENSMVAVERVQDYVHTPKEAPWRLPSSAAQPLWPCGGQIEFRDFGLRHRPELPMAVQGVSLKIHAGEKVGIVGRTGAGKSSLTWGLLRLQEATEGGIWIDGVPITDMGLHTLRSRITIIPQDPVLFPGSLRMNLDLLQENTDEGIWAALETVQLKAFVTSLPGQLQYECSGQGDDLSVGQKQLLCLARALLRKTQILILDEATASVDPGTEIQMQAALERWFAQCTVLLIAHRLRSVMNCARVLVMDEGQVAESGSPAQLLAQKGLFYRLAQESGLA

[2] = molecular target: T1, ATP-binding cassette sub-family C member 6; experiment: TP_TRANSPORTER: inhibition of photolabeling by IAARh123 (IAARh123: 1 uM, DOX: 1000 uM) in membranes from Mrp6-expressing P. pastoris
[3] = molecular target: T1, ATP-binding cassette sub-family C member 6; experiment: TP_TRANSPORTER: inhibition of photolabeling by IAARh123 (IAARh123: 1 uM, VP-16: 1000 uM) in membranes from Mrp6-expressing P. pastoris
[4] = molecular target: T1, ATP-binding cassette sub-family C member 6; experiment: TP_TRANSPORTER: inhibition of photolabeling by IAARh123 (IAARh123: 1 uM, K571: 1000 uM) in membranes from Mrp6-expressing P. pastoris
[5] = molecular target: T1, ATP-binding cassette sub-family C member 6; experiment: TP_TRANSPORTER: inhibition of photolabeling by IAARh123 (IAARh123: 1 uM, LTC4: 300 uM) in membranes from Mrp6-expressing P. pastoris

For `CC[C@]1(O)C[C@@H]2CN(CCc3c([nH]c4ccccc34)[C@@](C(=O)OC)(c3cc4c(cc3OC)N(C)[C@H]3[C@@](O)(C(=O)OC)[C@H](OC(C)=O)[C@]5(CC)C=CCN6CC[C@]43[C@@H]65)C2)C1` [VINBLASTINE], the Activity [1] was “inhibitor [(at a rough estimate) 55 % of control]”.
With `COc1cccc2c1C(=O)c1c(O)c3c(c(O)c1C2=O)C[C@@](O)(C(=O)CO)C[C@@H]3O[C@H]1C[C@H](N)[C@H](O)[C@H](C)O1` [DOXORUBICIN] the Activity [2] was “inhibitor [(at a rough estimate) 55 % of control]”.
`COc1cc([C@@H]2c3cc4c(cc3[C@@H](O[C@@H]3O[C@@H]5CO[C@@H](C)O[C@H]5[C@H](O)[C@H]3O)[C@H]3COC(=O)[C@H]23)OCO4)cc(OC)c1O` [ETOPOSIDE] was tested, and the Activity [3] was “is not an inhibitor [-]”.
For `CN(C)C(=O)CCSC(SCCC(=O)O)c1cccc(/C=C/c2ccc3ccc(Cl)cc3n2)c1` (stereo not given) [MK-571], the Activity [4] was “inhibitor [(at a rough estimate) 60 % of control]”.
`CCCCC/C=C\C\C=C/C=C/C=C/[C@@H](SC[C@@H](NC(=O)CC[C@H](N)C(=O)O)C(=O)NCC(=O)O)[C@@H](O)CCCC(=O)O` [LEUKOTRIEN C4] was tested, and the Activity [5] was “is not an inhibitor [-]”.
